Source: ChEMBL document CHEMBL1629429, “SAR studies of gymnasterkoreayne derivatives with cancer chemopreventive activities” (Bioorg Med Chem Lett, 2010)

Assays:
[1] = Chemoprevention index, ratio of IC50 for mouse Hepa-1c1c7 cells to drug level required to double specific NADPH:quinone reductase activity in mouse Hepa-1c1c7 cells; assay type: functional
[2] = Cytotoxicity against mouse Hepa-1c1c7 cells; assay type: cell-based

| Compound | Ratio IC50 [1] | IC50 [2] [µM] |
| --- | --- | --- |
| CC(C)=CC(O)C#CC#C[C@@H](O)[C@H](C)O (relative stereo) | 17.02 | 406 |
| C[C@H](O)[C@H](O)C#CC#CC(O)C1CCCCC1 (relative stereo) | >3.8 | > 500 |
| C=CCCCCC/C=C\C(O)C#CC#C[C@H](O)[C@H](C)O (some centres undefined) | 18.39 | 252 |
| CCCCCC(O)C#CC#C[C@H](O)[C@H](C)O (relative stereo) | >38.6 | > 500 |
| CCCCCCC(O)C#CC#C[C@@H](O)[C@H](C)O (relative stereo) | 25.66 | 223 |
| CCCCCCCCCC(O)C#CC#C[C@@H](O)[C@H](C)O (relative stereo) | 7.44 | 39.8 |
| C=CC(O)C#CC#C[C@@H](O)[C@H](C)O (relative stereo) | 1.12 | 177 |
| CCCCCC(O)C#CC#C[C@@H](O)[C@H](C)O (relative stereo) | >31.66 | > 500 |
| C=CCCCCC/C=C\[C@H](O)C#CC#CC1OC1C (some centres undefined) [GYMNASTERKOREAYNE B] | 9.57 | 70.6 |
| C=CCCCCC/C=C\C(O)C#CC#C[C@@H](O)[C@H](C)O (relative stereo) | 10.51 | 88.6 |
| C[C@H](O)[C@H](O)C#CC#CC(O)c1ccccc1 (relative stereo) | >13.57 | > 500 |
| CCC/C=C/C(O)C#CC#C[C@@H](O)[C@H](C)O (some centres undefined) | 14.77 | 422 |
| CCCCCCCCCC(O)CCCC[C@@H](O)[C@H](C)O (some centres undefined) |  | > 500 |
| CCCCCCCCCC(O)C#CC#C[C@H](O)[C@H](C)O (relative stereo) | 30.13 | 64.2 |
| C[C@H](O)[C@H](O)C#CC#CC(O)Cc1ccccc1 (relative stereo) | >8.64 | > 500 |
